{
  "source": "patent US12024506B2",
  "about": "“Compounds” (Oxford University Innovation Limited, priority 2018, dated 2024)",
  "data": [
    {"target": "T1, GST-human KRas166 (G12V) GPPNHP (Homo sapiens, UniProt P01116, G12V)", "T1 construct": "made in house; host or cells: E. coli C41(DE3)", "assay": "KRas small-molecule screening by SPR (Biacore T200)", "assay_type": "binding", "conditions": "compound 100 uM, 5% DMSO buffer; immobilised GST-KRas166 (G12V) GPPNHP", "experimental": "For SPR assays pGEX-KRAS(G12V) plasmid was transformed into E. coli C41(DE3). Bacterial cells were cultured at 37° C. to an OD600 of 0.6 and induced with IPTG (final 0.1 mM) at 18° C. over night. The GST fusion proteins were extracted from bacteria pellets after cell disruption in 140 mM NaCl, 2.7 mM KCl, 10 mM NaH2PO4, 1.8 mM KH2PO4, 1 mM EDTA, 2 mM MgCl2 pH 7.4 and purified by glutathione-sepharose column chromatography (GE Healthcare), eluting with 50 mM Tris-HCl pH8.0, 10 mM reduced glutathione, 1 mM DTT, 2 mM MgCl2. The eluted proteins were dialysed against 50 mM Tris-HCl pH8.0, 1 mM DTT, 2 mM MgCl2 and concentrated to 10 mg/ml using a Biomax-30 ULTRAFREE-15 centrifugal filter device (Millipore). Purified KRAS protein was loaded with GPPNHP as described elsewhere (Pacold et al., 2000). Loaded protein was then purified by gel filtration on a HiLoad Superdex-75 HR column (GE Healthcare) in 1×PBS pH7.4, 5 mM MgCl2 and concentrated for storage.\nProtocol for KRas Small-Molecule Screening and Affinity Measurements by SPR\nTo a previously immobilized CM5 chip (GE Healthcare BR-1005-30) with anti GST antibody via amine coupling method, GST in channel 1 and GST-human KRas166 (G12V) GPPNHP in channel 2 were immobilised. GST was immobilised between 2,000 and 5,000 Response units. KRAS166 (G12V) was immobilized between 10,000 to 15,000 Response Units.\nIn a 96 well plate, compounds were diluted in […], 5 mM MgCl2 and 5% DMSO Buffer to a final concentration of 100 uM. DCAl was used as positive control. Experiment also included a solvent correction curve for 5% DMSO. Screening and evaluation of the protein immobilization and the compounds screening was done accordingly to the BIACORE T200 control and evaluation software.\nCalculations for how many response units are required for a 1:1 ratio of compound/protein interaction are shown below. • Protein immobilisation: 10,000 RU; average fragment 300 Da in size. • Rmax=(MWA/MWL)×RL×SM • MWA is the molecular weight of the analyte in Da • MWL is the molecular weight of the ligand in Da • RL is the immobilization level in RU • SM is the molar stoichiometry (assume 1:1) • Rmax=300/47,500×10,000×1 • Rmax=63 RU. Cell Viability Assay protocols Assay 1", "units": {"SPR Response Units": "Response Units"}, "values": [
      {"smiles": "CN1CCN(Cc2ccc(C(=O)NCC3COc4cccc(-c5cccc(=O)[nH]5)c4O3)o2)CC1", "note": "(centres unmarked) [Example 52, 5-(4-Methyl-piperazin-1-ylmethyl)-furan-2-carboxylic acid [8-(6-oxo-1,6-dihydro-pyridin-2-yl)-2,3-dihydro-benzo[1,4]dioxin-2-ylmethyl]-amide]", "SPR Response Units": 18},
      {"smiles": "c1ccc(CN2CCN(c3cccc4c3OCCO4)CC2)cc1", "note": "[Example 71, 1-Benzyl-4-(2,3-dihydro-benzo[1,4]dioxin-5-yl)-piperazine]", "SPR Response Units": 14},
      {"smiles": "COc1cc(NC(=O)N2CCN(C)CC2)cc(-c2cccc3c2OCCO3)n1", "note": "[Example 23, 4-Methyl-piperazine-1-carboxylic acid [2-(2,3-dihydro-benzo[1,4]dioxin-5-yl)-6-methoxy-pyridin-4-yl]-amide]", "SPR Response Units": 58},
      {"smiles": "COc1ccc(-c2cccc3c2OC(CNC(=O)c2ccc(CN4CCN(C)CC4)o2)CO3)cn1", "note": "(centres unmarked) [Example 45a, 5-(4-Methyl-piperazin-1-ylmethyl)-furan-2-carboxylic acid [8-(6-methoxy-pyridin-3-yl)-2,3-dihydro-benzo[1,4]dioxin-2-ylmethyl]-amide]", "SPR Response Units": 90},
      {"smiles": "COc1nc(-c2cccc3c2OCCO3)ccc1Nc1ccccc1C(=O)NCC1CCN(C(=O)OC(C)(C)C)CC1", "note": "[Example 152, 4-({2-[6-(2,3-dihydro-benzo[1,4]dioxin-5-yl)-2-methoxy-pyridin-3-ylamino]-benzoylamino}-methyl)-piperidine-1-carboxylic acid tert-butyl ester]", "SPR Response Units": 36},
      {"smiles": "COc1nc(-c2cccc3c2OCCO3)ccc1NC1CCN(C)C1", "note": "(centres unmarked) [Example 86, [6-(2,3-Dihydro-benzo[1,4]dioxin-5-yl)-2-methoxy-pyridin-3-yl]-(1-methyl-pyrrolidin-3-yl)-amine]", "SPR Response Units": 17},
      {"smiles": "COc1nc(-c2cccc3c2OC(CNC(=O)C2CCOCC2)CO3)ccc1Nc1ccc(C(=O)NCCO)cc1", "note": "(centres unmarked) [Example 89, Tetrahydro-pyran-4-carboxylic acid (8-{5-[4-(2-hydroxy-ethylcarbamoyl)-phenylamino]-6-methoxy-pyridin-2-yl}-2,3-dihydro-benzo[1,4]dioxin-2-ylmethyl)-amide]", "SPR Response Units": 132},
      {"smiles": "CN(C)Cc1cccc(Nc2ccc(-c3cccc4c3OCCO4)nn2)c1", "note": "[Example 67a, [6-(2,3-Dihydro-benzo[1,4]dioxin-5-yl)-pyridazin-3-yl]-(3-dimethylaminomethyl-phenyl)-amine]", "SPR Response Units": 31},
      {"smiles": "CN1CCN(Cc2ccc(C(=O)NCC3COc4cccc(-c5ccn[nH]5)c4O3)o2)CC1", "note": "(centres unmarked) [Example 42, 5-(4-Methyl-piperazin-1-ylmethyl)-furan-2-carboxylic acid [8-(2H-pyrazol-3-yl)-2,3-dihydro-benzo[1,4]dioxin-2-ylmethyl]-amide]", "SPR Response Units": 62},
      {"smiles": "CN(C)CCOc1ccc(C(=O)NCC2COc3cccc(-c4cccc(=O)[nH]4)c3O2)cc1", "note": "(centres unmarked) [Example 53, 4-(2-dimethylamino-ethoxy)-N-[8-(6-oxo-1,6-dihydro-pyridin-2-yl)-2,3-dihydro-benzo[1,4]dioxin-2-ylmethyl]-benzamide]", "SPR Response Units": 52},
      {"smiles": "CN1CCC(CC(=O)Nc2ccc(-c3cccc4c3O[C@H](CNC(=O)C3CCOCC3)CO4)nc2)CC1", "note": "[Example 92, Tetrahydro-pyran-4-carboxylic acid ((R)-8-{5-[2-(1-methyl-piperidin-4-yl)-acetylamino]-pyridin-2-yl}-2,3-dihydro-benzo[1,4]dioxin-2-ylmethyl)-amide]", "SPR Response Units": 7},
      {"smiles": "COc1cc(NC(=O)[C@@H]2CC[C@H](N)C2)cc(-c2cccc3c2OCCO3)n1", "note": "[Example 133, (1R,3S)-3-Amino-cyclopentanecarboxylic acid[2-(2,3-dihydro-benzo[1,4]dioxin-5-yl)-6-methoxy-pyridin-4-yl]-amide]", "SPR Response Units": 96},
      {"smiles": "COc1cccc(-c2cccc3c2OC(CNCC2CCN(C)CC2)CO3)n1", "note": "(centres unmarked) [Example 27, [8-(6-Methoxy-pyridin-2-yl)-2,3-dihydro-benzo[1,4]dioxin-2-ylmethyl]-(1-methyl-piperidin-4-ylmethyl)-amine]", "SPR Response Units": 58},
      {"smiles": "CN(C)Cc1cccc(C(=O)N2CCN(c3cccc4c3OCCO4)CC2)c1", "note": "[Example 156, [4-(2,3-Dihydro-benzo[1,4]dioxin-5-yl)-piperazin-1-yl]-(3-dimethylaminomethyl-phenyl)-methanone]", "SPR Response Units": 5},
      {"smiles": "CN(C)Cc1cccc(Nc2ccc(-c3cccc4c3OCCO4)nc2)c1", "note": "[Example 59, [6-(2,3-Dihydro-benzo[1,4]dioxin-5-yl)-pyridin-3-yl]-(3-dimethylaminomethyl-phenyl)-amine]", "SPR Response Units": 79},
      {"smiles": "COc1cc(NC(=O)C2CCNCC2)cc(-c2cccc3c2OCCO3)n1", "note": "[Example 19, Piperidine-4-carboxylic acid [2-(2,3-dihydro-benzo[1,4]dioxin-5-yl)-6-methoxy-pyridin-4-yl]-amide]", "SPR Response Units": 100},
      {"smiles": "N[C@H]1CC[C@@H](NC(=O)Nc2ccnc(-c3cccc4c3OC(CNC(=O)C3CCOCC3)CO4)c2)C1", "note": "(stereo partly drawn) [Example 142, tetrahydro-pyran-4-carboxylic acid (8-{4-[3-((1R,3S)-3-amino-cyclopentyl)-ureido]-pyridin-2-yl}-2,3-dihydro-benzo[1,4]dioxin-2-ylmethyl)-amide]", "SPR Response Units": 26},
      {"smiles": "CN1CCN(Cc2ccc(C(=O)NCC3COc4cccc(-c5ccc(OCCN6CCOCC6)cn5)c4O3)o2)CC1", "note": "(centres unmarked) [Example 107, 5-(4-methyl-piperazin-1-ylmethyl)-furan-2-carboxylic acid {8-[5-(2-morpholin-4-yl-ethoxy)-pyridin-2-yl]-2,3-dihydro-benzo[1,4]dioxin-2-ylmethyl}-amide]", "SPR Response Units": 9},
      {"smiles": "COc1nc(-c2cccc3c2OC(CNC(=O)C2CCOCC2)CO3)ccc1Nc1cccc(CN2CCN(C(C)=O)CC2)c1", "note": "(centres unmarked) [Example 90, Tetrahydro-pyran-4-carboxylic acid (8-{5-[3-(4-acetyl-piperazin-1-ylmethyl)-phenylamino]-6-methoxy-pyridin-2-yl}-2,3-dihydro-benzo[1,4]dioxin-2-ylmethyl)-amide]", "SPR Response Units": 140},
      {"smiles": "COc1nc(-c2cccc3c2OCCO3)ccc1NC1CCN(C)CC1", "note": "[Example 98, [6-(2,3-Dihydro-benzo[1,4]dioxin-5-yl)-2-methoxy-pyridin-3-yl]-(1-methyl-piperidin-4-yl)-amine]", "SPR Response Units": 21},
      {"smiles": "COc1cccc(-c2cccc3c2OC(CO)CO3)n1", "note": "(centres unmarked) [Example 2, [8-(6-Methoxy-pyridin-2-yl)-2,3-dihydro-benzo[1,4]dioxin-2-yl]-methanol]", "SPR Response Units": 17},
      {"smiles": "COc1cccc(-c2cccc3c2OC(CNC(=O)CCN(C)C)CO3)n1", "note": "(centres unmarked) [Example 47, 3-Dimethylamino-N-[8-(6-methoxy-pyridin-2-yl)-2,3-dihydro-benzo[1,4]dioxin-2-ylmethyl]-propionamide]", "SPR Response Units": 16},
      {"smiles": "COc1cc(NC(=O)N[C@@H]2CC[C@H](N)C2)cc(-c2cccc3c2OCCO3)n1", "note": "[Example 136, 1-((1R,3S)-3-Amino-cyclopentyl)-3-[2-(2,3-dihydro-benzo[1,4]dioxin-5-yl)-6-methoxy-pyridin-4-yl]-urea]", "SPR Response Units": 75},
      {"smiles": "COc1cc(NC(=O)[C@H]2CNCCO2)cc(-c2cccc3c2OCCO3)n1", "note": "[Example 18, (R)-Morpholine-2-carboxylic acid [2-(2,3-dihydro-benzo[1,4]dioxin-5-yl)-6-methoxy-pyridin-4-yl]-amide]", "SPR Response Units": 71},
      {"smiles": "COc1nc(-c2cccc3c2OCCO3)ccc1NC1CCN(C(C)=O)CC1", "note": "[Example 99, 1-{4-[6-(2,3-Dihydro-benzo[1,4]dioxin-5-yl)-2-methoxy-pyridin-3-ylamino]-piperidin-1-yl}-ethanone]", "SPR Response Units": 33},
      {"smiles": "COc1ccc(N2CC(=O)N(CC3COc4cccc(-c5cccc(OC)n5)c4O3)C2=O)cn1", "note": "(centres unmarked) [Example 36, 1-(6-Methoxy-pyridin-3-yl)-3-[8-(6-methoxy-pyridin-2-yl)-2,3-dihydro-benzo[1,4]dioxin-2-ylmethyl]-imidazolidine-2,4-dione]", "SPR Response Units": 58}
    ]}
  ]
}
